Test results as given in US12258554B2 (priority 2014, dated 2025).
Where “and” joins values, the source holds several entries; their conditions need not be identical. Equal entries are not always repeated. Where two headings read alike, the source gives them in different places. Where a SMILES comes first, the peptide text is derived from it. Bridges are numbered along the chain shown (N, C = ends). [ ]: non-standard residue; d: D form. The star is where a group is joined. ξ: configuration not given here. Pentadecanoyl(3ξ-OH,15-Gua) = N=C(N)NCCCCCCCCCCCCC(O)CC(=O)*; d(aThr) = C[C@@H](O)[C@@H](N)C(=O)O; Thr(3ξ) = CC(O)[C@H](N)C(=O)O; ξY = NC(Cc1ccc(O)cc1)C(=O)O

Tests used:
[1] = tested on: Septoria tritici (SEPTTR); assay: Glasshouse test, speckled leaf blotch on wheat, protective application; type: in vivo; settings: metabolite conc. 360 ppm
Procedure: Commercially available young wheat seedlings were used for the described greenhouse trial. 2 replications (pots with 1 plant each) were used per treatment. Plants were grown in commercially available substrate (Universal, Floragard) at approx. 22° C. in the greenhouse. The humidity was controlled using a special device (˜90% humidity). The plants were sprayed to runoff with crude culture broth of 2-6 days old cultures of Paenibacillus spp. (depending on the setup) using a spray cabinet. Culture conditions are described in Example 3. One day after application the treated plants were inoculated with a suspension of spores of Septoria tritici (SEPTTR). After inoculation, the trial plants were immediately transferred to a humid chamber. The extent of fungal attack on the leaves was visually assessed 21-28 days after inoculation.

[2] = tested on: Alternaria solani (ALTESO); assay: Fungal growth assay in 96 well plates; type: cell-based; settings: OD 600 nm, YBG, about 18° C.
Procedure: (§1) Fungal growth assays were performed in 96 well plates with spore suspension of the pathogen Botrytis cinerea (BOTRCI, in YBA [10 g Bacto peptone (Becton Dickinson 211677), 10 g yeast extract (Becton Dickinson 212750), 20 g sodium acetate, ad 1000 mL aqua bidest] or Alternaria solani (ALTESO, in YBG [10 g Bacto peptone (Becton Dickinson 211677), 10 g yeast extract (Becton Dickinson 212750), 20 g glycerine 99%, ad 1000 mL aqua bidest]). Fusaricidins and compounds 1A and 1B were dissolved and diluted in DMSO. Different concentrations ranging from 60 μM down to 0.3 μM were pipetted into the microtiter plate. An aqueous suspension of 10^4 spores/ml was added. The plates were incubated at about 18° C. Fungal growth was determined by measuring the optical density at 600 nm in a microplate reader 3 and 7 days after the inoculation of the spores and compared to the untreated control (DMSO). IC50 (concentration [μM] of the respective metabolite required for 50% inhibition of fungal growth) has been determined thereafter.

[3] = tested on: Botrytis cinerea (BOTRCI); assay: Fungal growth assay in 96 well plates; type: cell-based; settings: evaluation 7 d after inoculation, OD 600 nm, YBA, about 18° C.; read-out: Fungal growth inhibition (IC50) BOTRCI (7d)
Procedure: as §1

[4] = tested on: Phytophthora infestans (PHYTIN); type: in vivo; settings: for % efficacy (% fungal attack): late blight on tomato, protective application, metabolite conc. 7.2 ppm, visually assessed 5-7 days after inoculation; for % efficacy PHYTIN: in planta, 360 ppm, assessed 5-7 days after inoculation
[5] = tested on: Fusarium graminearum (GIBBZE); type: in vivo; settings: for % efficacy (% fungal attack): head blight on wheat, protective application, metabolite conc. 360 ppm, visually assessed 5-7 days after inoculation
[6] = tested on: important fungal diseases on crop plants; type: in vivo; settings: metabolites; for controlling important fungal diseases on crop plants: dose levels as low as 7.2 ppm; for antifungal efficacy compared with Fusaricidin A, B and D: glasshouse trials
[7] = tested on: Alternaria solani (ALTESO); settings: in vivo
[8] = tested on: Phakopsora pachyrhizi (PHAKPA); settings: in vivo
[9] = tested on: Botrytis cinerea (BOTRCI); settings: in vivo
[10] = tested on: clinically relevant fungi and gram-positive bacteria such a Staphylococcus aureus; settings: ChemMedChem 7, 871-882, 2012; cited from earlier work
[11] = evaluation 3 d after inoculation, read-out: Fungal growth inhibition (IC50) ALTESO (3 d)
[12] = evaluation 7 d after inoculation, read-out: Fungal growth inhibition (IC50) ALTESO (7 d)

Row | SMILES | % efficacy (% fungal attack) [1] [%] | IC50 [2, 11] [µM] | IC50 [2, 12] [µM] | IC50 [3] [µM] | % efficacy (% fungal attack) [4] [%] | % efficacy (% fungal attack) [5] [%] | controlling important fungal diseases on crop plants [6] | antifungal efficacy compared with Fusaricidin A, B and D [6] | % efficacy ALTESO [7] [%] | % efficacy GIBBZE ([5]; in planta, 360 ppm, assessed 5-7 days after inoculation) [%] | % efficacy PHAKPA [8] [%] | % efficacy BOTRCI [9] | % efficacy PHYTIN [4] [%] | MIC value range [10] [µg/mL]
1 | CC1OC(=O)[C@@H](C)NC(=O)[C@@H](CCC(N)=O)NC(=O)[C@@H]([C@H](C)O)NC(=O)C(Cc2ccc(O)cc2)NC(=O)[C@@H](C(C)C)NC(=O)[C@H]1NC(=O)CC(O)CCCCCCCCCCCCN=C(N)N (stereo partly shown) [Compound 2B, fusaricidin D] ({Pentadecanoyl(3ξ-OH,15-Gua)}-[Thr(3ξ)][dV][ξY][dT][dQ][dA]; ester 1-C) | 50 | 1.1 | 0.6 | 0.5 | 0 | – | – | – | – | – | – | – | – | –
2 | CC(C)[C@@H]1NC(=O)[C@@H](C(C)C)NC(=O)[C@@H](NC(=O)CC(O)CCCCCCCCCCCCN=C(N)N)C(C)OC(=O)[C@@H](C)NC(=O)[C@@H](CCC(N)=O)NC(=O)[C@@H]([C@H](C)O)NC1=O (stereo in doubt) [Compound 5B, fusaricidin B] | – | 1.1 | 0.6 | 0.6 | 4 | 0 | – | – | – | – | – | – | – | –
3 | CCC(C)C1NC(=O)C(NC(=O)CC(O)CCCCCCCCCCCCNC(=N)N)C(C)OC(=O)C(C)NC(=O)C(CC(N)=O)NC(=O)C(C(C)O)NC(=O)C(Cc2ccc(O)cc2)NC1=O (stereo not shown) [Compound 1A] ({Pentadecanoyl(3ξ-OH,15-Gua)}-TIYTNA; ester 1-C; configuration not given here) | – | 0.6 | 0.5 | 0.3 | – | 49 | effective | higher antifungal efficacy than Fusaricidin A, B and D | 74 | 49 | 95 | 99% and 97% | 100 | –
4 | CC(C)[C@@H]1NC(=O)[C@@H](C(C)C)NC(=O)[C@@H](NC(=O)CC(O)CCCCCCCCCCCCN=C(N)N)[C@@H](C)OC(=O)[C@@H](C)NC(=O)[C@@H](CC(N)=O)NC(=O)[C@@H]([C@@H](C)O)NC1=O (stereo partly shown) [Compound 5A, fusaricidin A] ({Pentadecanoyl(3ξ-OH,15-Gua)}-T[dV]V[d(aThr)][dN][dA]; ester 1-C) | – | 1.3 | 0.7 | 0.5 | 15 | 31 | – | – | – | – | – | – | – | 0.78 to 3.12
5 | CCC(C)C1NC(=O)C(NC(=O)CC(O)CCCCCCCCCCCCNC(=N)N)C(C)OC(=O)C(C)NC(=O)C(CCC(N)=O)NC(=O)C(C(C)O)NC(=O)C(Cc2ccc(O)cc2)NC1=O (stereo not shown) [Compound 1B] ({Pentadecanoyl(3ξ-OH,15-Gua)}-TIYTQA; ester 1-C; configuration not given here) | 80 | 0.6 | 0.4 | 0.4 | 44 | – | effective | higher antifungal efficacy than Fusaricidin A, B and D | – | – | 97 | 97% and 100% | 100 | –
